In patent US20150315241A1, “Antibiotic Peptides” (priority 2007, published 2015):

System: human erythrocytes
Assay: Hemolytic assay
Assay type: cell-based
Conditions: 1 h 37° C., relative to 0.1% Triton X-100, peptide concentration 600 μg/mL
Protocol: To determine whether the peptides and peptide derivatives according to the invention were toxic to mammalian cells, several peptides and peptidomimetics from Example 1 above, a positive control, and a negative control were examined for hemolytic activity. The hemolytic activity was assayed with human erythrocytes. A human erythrocyte concentrate was provided in sodium chloride […]-glucose-mannitol buffer from the Leipzig University Hospital (Leipzig, Germany). The erythrocytes were centrifuged at 1000 G and washed three times with 10 volumes of cold phosphate-buffered saline (PBS, pH 7.4). The erythrocytes were diluted to a final concentration of 1% in PBS. One hundred microliters of this human erythrocyte suspension in PBS was added to each well of a V-shaped 96-well polypropylene microtiter plate (Greiner Bio-One GmbH). […] The microtiter plate was incubated at 37° C. for 1 h and subsequently centrifuged for 10 min at 1000 G. One hundred microliters of the supernatant was transferred to a 96-well flat-bottomed polystyrene microtiter plate (Greiner Bio-One GmbH) and the absorption at 405 nm recorded in a micro plate spectrophotometer (Tecan) to evaluate the heme release. […] The hemolysis percentage was calculated by the following equation[44]: ([…])×100% with E=Extinction at 405 nm All hemolytic assays were performed in duplicates. […]

(p-tert-Octylphenoxy)polyethoxyethanol [Triton X-100 ®]
Haemolysis rate: 100%
